Experimental data from ChEMBL document CHEMBL1142111, “Induced production of emericellamides A and B from the marine-derived fungus Emericella sp. in competing co-culture” (J Nat Prod, 2007).
pIC50: −log10 of the molar value. In brackets after ≈: the same amount, converted by molar mass.

Experiments:
Staphylococcus aureus = assay: Antimicrobial activity against methicillin-resistant Staphylococcus aureus; format: functional
HCT-116 = assay: Cytotoxicity against human HCT116 cells; format: cell-based

Structure (SMILES)	MIC (Staphylococcus aureus) [µM]	pIC50 (HCT-116)
CCCCCC[C@H](C)C[C@H](C)[C@H]1OC(=O)[C@H](C)NC(=O)[C@H](C)NC(=O)[C@H](CC(C)C)NC(=O)[C@H](C(C)C)NC(=O)CNC(=O)[C@@H]1C [EMERICELLAMIDE B]	6 (≈ 3.91 µg/mL)	4.40
CCCCCC[C@H](C)[C@H]1OC(=O)[C@H](C)NC(=O)[C@H](C)NC(=O)[C@H](CC(C)C)NC(=O)[C@H](C(C)C)NC(=O)CNC(=O)[C@@H]1C [EMERICELLAMIDE A]	3.8 (≈ 2.32 µg/mL)	4.64
